One data set addresses T1, Aβ1-42 aggregates (Homo sapiens, UniProt P05067).
T1 construct: Preparing receptor Aβ1-42 proteins according to the existing method
As to the kind of experiment: In-vitro competitive binding experiments (Ki determination) with Aβ1-42 aggregates. Particulars: for affinity with the Aβ1-42 aggregates compared with IMPY and PIB: competitive binding experiments. On the procedure:
Binding reaction occurs between Aβ1-42 aggregate proteins with certain concentration and radioactive ligands [^125I] […] 4, the compounds are separated after balancing, and the inhibition constant (Ki) is calculated by determining radioactivity.
(1) Preparing 4 l of PBS (0.2M) buffer solution with pH=7.4;
(2) Preparing radioligand [^125]
(3) Preparing the compounds to be determined into 10^−3 to 10^−9 mol/L continuously diluted ethanol solution;
(4) Preparing receptor Aβ1-42 proteins according to the existing method and diluting the proteins into 30 nM water solution;
(5) Soaking a glass fiber filter membrane in PBS solution containing 0.1% (volume fraction) polyethyleneimine for 0.5 h;
(6) Respectively adding 100 μl of solution of compounds with different concentration and to be determined, 100 μl of [^125I]
(7) Oscillating and incubating for 2 h in 37° C. constant-temperature water bath;
(8) Collecting reaction liquid by using a multi-head cell collector, and washing the reaction liquid for three times by using PBS, 3 ml per time;
(9) Measuring and counting by using a γ counter; and […]

A further data set can be described thus: logD of labeled ligands. It is filed as physicochemical.
Data set [1] can be described thus: Biological distribution in bodies of normal mice. It is filed as in vivo, mice (ICR). Particulars: caudal vein injection. From the text: Through in-vivo distribution experiments, pharmacokinetic features, especially initial bran intake and brain removal situations of ^18F or ^125I labeled compounds in the bodies of mice are studied. […] Data are expressed in radioactive percentage dosage per organ (% ID/organ) and radioactive percentage dosage per gram of organ (% ID/g).

The mark [2] stands for this setting: competition against radioligand [^125I] IMPY, Aβ1-42 aggregates, 37° C., 2 h.

Data on 35 compounds can be found in US20170037008A1, “PHENYL BENZYL ETHER DERIVATIVE AND PREPARATION METHOD AND APPLICATION THEREOF” (BEIJING ZHIBO BIO-MEDICAL TECHNOLOGY CO., LTD, priority 2013, published 2017).

Structures are written as SMILES. Read-outs that look alike come from different tables or passages of the source.

T1 sequence (P05067 672-713 limits assumed): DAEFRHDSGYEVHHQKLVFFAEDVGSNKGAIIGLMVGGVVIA

Consider `COc1ccc(OCc2ccc(I)cc2)cc1` [Compound 4, 1-iodo-4-((4-methoxyphenoxy)methyl) benzene], for which, at Aβ1-42 aggregates, the Ki (commonly the dissociation constant of the complex between target and ligand, obtained from inhibition or displacement) was 28.7 ± 8 nM; the “affinity with the Aβ1-42 aggregates compared with IMPY and PIB” value (“affinity … compared with IMPY and PIB” below) is “higher than that of the known compounds IMPY and PIB”.
Turning to `COc1cccc(OCc2ccc(I)cc2)c1` [Compound 5, 1-(4-iodobenzyloxy)-3-methoxybenzene], affinity on Aβ1-42 aggregates was put at a Ki of 154 ± 5.6 nM.
The same measure, in the same setting: for `COc1ccccc1OCc1ccc(I)cc1` [Compound 6, 1-(4-iodobenzyloxy)-2-methoxybenzene] the value was 6110 ± 458 nM.
Same read-out and setting: for `Oc1ccc(OCc2ccc(I)cc2)cc1` [Compound 7, 4-(4-iodobenzyloxy) phenol] the value was 134 ± 28.1 nM.
The same measure, in the same setting: for `Oc1cccc(OCc2ccc(I)cc2)c1` [Compound 8, 3-(4-iodobenzyloxy) phenol] the value was 456 ± 135 nM; for `Oc1ccccc1OCc1ccc(I)cc1` [Compound 9, 2-(4-iodobenzyloxy) phenol], 3350 ± 611 nM; for `Fc1ccc(OCc2ccc(I)cc2)cc1` [Compound 10, 1-fluoro-4-(4-iodobenzyloxy) benzene], 127 ± 18.2 nM.
Consider `Clc1ccc(OCc2ccc(I)cc2)cc1` [Compound 11, 1-chloro-4-(4-iodobenzyloxy) benzene], for which, on Aβ1-42 aggregates, the affinity corresponds to a Ki of 22.3 ± 2.6 nM; the “affinity … compared with IMPY and PIB” value was “higher than that of the known compounds IMPY and PIB”.
For the compound `Brc1ccc(OCc2ccc(I)cc2)cc1` [Compound 12, 1-bromo-4-(4-iodobenzyloxy) benzene], on Aβ1-42 aggregates, affinity was put at a Ki of 14.1 ± 1.2 nM; the “affinity … compared with IMPY and PIB” value is “higher than that of the known compounds IMPY and PIB”.
Regarding `Ic1ccc(COc2ccc(I)cc2)cc1` [Compound 13, 1-iodo-4-(4-iodobenzyloxy) benzene], on Aβ1-42 aggregates, the inhibition constant (Ki) was 25.9 ± 2.4 nM; the “affinity … compared with IMPY and PIB” value is “higher than that of the known compounds IMPY and PIB”.
Take `Ic1ccc(COc2ccccc2)cc1` [Compound 14, 1-iodo-4-(phenoxymethyl) benzene]: affinity on Aβ1-42 aggregates was put at a Ki of 93.9 ± 6.1 nM.
Take `CC(C)(C)c1ccc(OCc2ccc(I)cc2)cc1` [Compound 15, 1-tert-butyl-4-(4-iodobenzyloxy) benzene]: at Aβ1-42 aggregates, the affinity corresponds to a Ki of 139 ± 20.9 nM.
The same measure, in the same setting: for `Nc1ccc(OCc2ccc(I)cc2)cc1` [Compound 16, 4-(4-iodobenzyloxy) aniline] the value was 484 ± 53.2 nM; for `Nc1cccc(OCc2ccc(I)cc2)c1` [Compound 17, 3-(4-iodobenzyloxy) aniline], 1810 ± 189 nM; for `Nc1ccccc1OCc1ccc(I)cc1` [Compound 18, 2-(4-iodobenzyloxy) aniline], 1220 ± 58 nM.
Still for that read-out and setting: the same measure for `CNc1ccc(OCc2ccc(I)cc2)cc1` [Compound 19, 4-(4-iodobenzyloxy)-N-methylaniline]: 57 ± 5.1 nM; for `CNc1cccc(OCc2ccc(I)cc2)c1` [Compound 20, 3-(4-iodobenzyloxy)-N-methylaniline]: 702 ± 92.4 nM; for `CNc1ccccc1OCc1ccc(I)cc1` [Compound 21, 2-(4-iodobenzyloxy)-N-methylaniline]: > 20000 nM.
As to `CN(C)c1ccc(OCc2ccc(I)cc2)cc1` [Compound 22, 4-(4-iodobenzyloxy)-N,N-dimethylaniline], on Aβ1-42 aggregates, the affinity, expressed as Ki, was 20.9 ± 1.8 nM; the “affinity … compared with IMPY and PIB” value was “higher than that of the known compounds IMPY and PIB”.
On Aβ1-42 aggregates, `CN(C)c1cccc(OCc2ccc(I)cc2)c1` [Compound 23, 3-(4-iodobenzyloxy)-N,N-dimethylaniline] displayed a Ki of 1060 ± 104 nM.
The same measure, in the same setting: the same measure for `COc1ccc(COc2ccc(I)cc2)cc1` [Compound 24, 1-iodo-4-(4-methoxybenzyloxy) benzene]: 58.5 ± 3.5 nM.
Still for that read-out and setting: for `COc1ccc(SCc2ccc(I)cc2)cc1` [Compound 25, (4-iodobenzyl) (4-methoxyphenyl) sulfane] the value was 627 ± 129 nM.
Consider `FCCOc1ccc(OCc2ccc(I)cc2)cc1` [Compound 31a, 1-(2-fluoroethoxy)-4-((4-iodobenzyl)oxy) benzene], for which, at Aβ1-42 aggregates, the Ki came to 24.1 ± 8.8 nM; the “affinity … compared with IMPY and PIB” value was “higher than that of the known compounds IMPY and PIB”.
For `FCCOc1ccc(COc2ccc(I)cc2)cc1` [Compound 35a, 1-(2-fluoroethoxy)-4-((4-iodophenoxy)methyl) benzene], at Aβ1-42 aggregates, the Ki is 23 ± 3.3 nM; the “affinity … compared with IMPY and PIB” value is “higher than that of the known compounds IMPY and PIB”.
With `COc1ccc(OCc2ccc(OCCF)cc2)cc1` [Compound 44a, 1-(2-fluoroethoxy)-4-((4-methoxyphenoxy)methyl) benzene], the affinity on Aβ1-42 aggregates corresponds to a Ki of 167 ± 34.5 nM.
Same read-out and setting: the same measure for `CNc1ccc(OCc2ccc(OCCF)cc2)cc1` [Compound 46, 4-(4-(2-fluoroethoxy)benzyloxy)-N-methylaniline]: 460 ± 82 nM.
As for `CN(C)c1ccc(OCc2ccc(OCCF)cc2)cc1` [Compound 47, 4-(4-(2-fluoroethoxy)benzyloxy)-N,N-dimethylaniline], at Aβ1-42 aggregates, the affinity, expressed as Ki, was 23 ± 5.3 nM; the “affinity … compared with IMPY and PIB” value was “higher than that of the known compounds IMPY and PIB”.
Regarding `COc1ccc(COc2ccc(OCCF)cc2)cc1` [Compound 53a, 1-(2-fluoroethoxy)-4-(4 methoxybenzyloxy) benzene], the inhibition constant (Ki) at Aβ1-42 aggregates was found to be 465 ± 18.8 nM.
In the case of `O=c1ccc(I)cn1Cc1ccc(I)cc1` [Compound 58], on Aβ1-42 aggregates (setting [2]), affinity was put at a Ki of 1060 nM.
Still for that read-out and setting: the same measure for `FCCOc1ccc(COc2cccnc2I)cc1` [Compound 65]: 2080 ± 458 nM.
In turn, `CN(C)c1ccc(CNc2ccc(I)cc2)cc1` [Compound 67, 4-(((4-iodophenyl)amino)methyl)-N,N-dimethylaniline] yielded an inhibition constant Ki on Aβ1-42 aggregates of 124 ± 14.3 nM.
As to `COc1ccc(OCc2ccc(OCC[18F])cc2)cc1` [[^18F]44a], in the data set “logD of labeled ligands”, the logD entry was “[^18F]44a (logD = 3.05 ± 0.08)”. Also, the Blood was determined as 3.90 ± 0.25 % ID/g in data set [1] (2 min), 3.86 ± 0.24 % ID/g in data set [1] (10 min), 4.28 ± 0.23 % ID/g in data set [1] (30 min) and 3.86 ± 0.39 % ID/g in data set [1] (60 min). Besides, the Bone in data set [1] (2 min) came out at 1.50 ± 0.44 % ID/organ; in data set [1] (10 min) it was 1.04 ± 0.25 % ID/organ; in data set [1] (30 min) it was 1.43 ± 0.44 % ID/organ; in data set [1] (60 min), 4.05 ± 0.62 % ID/organ. Also, the Brain came out at 7.54 ± 0.39 % ID/g in data set [1] (2 min), 3.32 ± 0.38 % ID/g in data set [1] (10 min), 2.77 ± 0.22 % ID/g in data set [1] (30 min) and 2.33 ± 0.30 % ID/g in data set [1] (60 min).
With `COc1ccc(COc2ccc(OCC[18F])cc2)cc1` [[^18F] 53a], the logD entry in “logD of labeled ligands” is “[^18F] 53a (logD = 3.65 ± 0.04)”. Besides, the Blood in data set [1] (2 min) is given as 4.26 ± 0.41 % ID/g; in data set [1] (10 min) it was 4.61 ± 0.95 % ID/g; in data set [1] (30 min) it was 3.76 ± 0.19 % ID/g; in data set [1] (60 min) it was 3.05 ± 1.09 % ID/g. The Bone in data set [1] (2 min) turned out to be 2.37 ± 0.69 % ID/organ; in data set [1] (10 min), 2.76 ± 0.47 % ID/organ; in data set [1] (30 min) it was 4.02 ± 0.78 % ID/organ; in data set [1] (60 min), 5.89 ± 0.49 % ID/organ. In addition, the Brain in data set [1] (2 min) was 9.95 ± 2.36 % ID/g; in data set [1] (10 min) it was 2.77 ± 0.19 % ID/g; in data set [1] (30 min), 1.44 ± 0.18 % ID/g; in data set [1] (60 min), 1.30 ± 0.16 % ID/g.
Turning to `COc1ccc(COc2ccc(OCCOCCOCC[18F])cc2)cc1` [[^18F] 53b], the logD result in the data set “logD of labeled ligands” is “[^18F] 53b (logD = 3.04 ± 0.04)”. For the same compound, the Blood in data set [1] (2 min) was determined as 3.95 ± 0.34 % ID/g; in data set [1] (10 min) it was 4.14 ± 0.91 % ID/g; in data set [1] (30 min), 3.40 ± 0.25 % ID/g; in data set [1] (60 min), 2.36 ± 0.66 % ID/g. For the same compound, the Bone was 1.36 ± 0.35 % ID/organ in data set [1] (2 min), 1.22 ± 0.42 % ID/organ in data set [1] (10 min), 1.39 ± 0.54 % ID/organ in data set [1] (30 min) and 1.52 ± 0.27 % ID/organ in data set [1] (60 min). Also, the Brain in data set [1] (2 min) is 9.71 ± 1.31 % ID/g; in data set [1] (10 min), 2.52 ± 0.20 % ID/g; in data set [1] (30 min), 1.39 ± 0.10 % ID/g; in data set [1] (60 min), 1.07 ± 0.10 % ID/g.
For the compound `CN(C)c1ccc(-c2cn3cc([125I])ccc3n2)cc1` [[^125I]IMPY, reference compound], the Blood in data set [1] (2 min) was found to be 3.85 ± 0.53 % ID/g; in data set [1] (10 min), 2.81 ± 0.33 % ID/g; in data set [1] (30 min), 1.50 ± 0.20 % ID/g; in data set [1] (60 min), 1.03 ± 0.10 % ID/g. The Brain in data set [1] (2 min) stood at 5.05 ± 0.38 % ID/g; in data set [1] (10 min), 1.80 ± 0.12 % ID/g; in data set [1] (30 min) it was 0.67 ± 0.15 % ID/g; in data set [1] (60 min), 0.45 ± 0.07 % ID/g. Also, the Thyroid in data set [1] (2 min) is 0.12 ± 0.05 % ID/organ; in data set [1] (10 min) it was 0.09 ± 0.03 % ID/organ; in data set [1] (30 min), 0.22 ± 0.08 % ID/organ; in data set [1] (60 min), 0.30 ± 0.09 % ID/organ.
